Assay [1] relates to Human melanoma MeWo cells. The experiment in a line: Cell adhesion assay on vitronectin, MeWo. Format: cell-based. The note with it: inhibition of cell adhesion to human vitronectin, 0.1 to 100 μM; read-out: MeWo IC50 ± SD. As for the experimental part: Human melanoma MeWo cells from the American Type Culture Collection (ATCC) were kept in culture in complete Eagle Minimal Essential Medium (EMEM) containing 10% FCS, 2 mM L-glutamine and 50 μg/ml gentamicin.
(§1) 96-well plates were pretreated with 5 μg/ml of human vitronectin (Cal-biochem) for 12 hours at +4° C. BMEC or MeWo cells were detached with trypsin-EDTA, counted and plated on vitronectin substrate. The molecules were assayed at scalar concentrations ranging from 0.1 to 100 μM and co-incubated with the cells left to adhere. […] The adhereing cells were fixed with a 4% paraformaldehyde solution for 10 minutes at room temperature. The cells were then stained with a 1% toluidine blue solution for 10 minutes at room temperature. After staining, the cells were washed in double-distilled water, dried and solubilised with a 1% SDS solution. The cells were then quantified by means of absorbance reading on a Victor multilabel plate counter (Wal-lac) at 600 nm.
(§2) The evaluation parameter for the activity of the molecules was the value IC50±SD (μM).

Assay [2] concerns bovine microvascular endothelial cells (BMEC).
Procedure: Microvascular endothelial cells from bovine adrenal glands (bovine microvascular endothelial cells—BMEC) were isolated from animals that had just been sacrificed and were stored in ice up to their arrival in the laboratory. In sterile conditions, the glands were washed in a solution of betadine for 5 minutes and then in 2 liters of sterile PBS. The glands were then cut with a disposable sterile lancet into fragments of approximately 2 mm and transferred to polystyrene Falcon tubes containing PBS (30 ml per gland). After centrifuging at 600 rpm in a centrifuge cooled to +4° C., the supernatant was decanted. The pellet was resuspended 1:2 with a 0.12% solution of collagenase A (Boehringer Mannheim) and incubated at 37° C. for 2 hours under stirring. After subsequent filtration on filters (Sigma), first of 200, and then 100 mesh, the supernatant was added to a solution of DMEM containing 15% FBS to inhibit the action of the collagenase A. The solution was centrifuged at 1000 rpm at room temperature and the precipitate resuspended in DMEM medium containing 20% FBS, 50 μg/ml of bovine brain extract (BBE), 50 μg/ml of heparin (Sigma), 0.5% v/v gentamicin (Sigma), and 1% v/v L-glutamine. The cells were seeded on Petri dishes gelatinised with 1% gelatin (Sigma porcine gelatin). At confluence, the cells were characterised with endothelial markers as Factor VIII.
For another assay, the target named is T1, integrin αvβ3 (Homo sapiens, UniProt P05106+P06756).
T1 construct: purchased Chemicon CC1020
Kind of assay: Binding to integrin αvβ3 receptors ((125I) Echistatin displacement). The note with it: for IC50: 0.05 nM (125I) Echistatin, 3-hour incubation, plate coated with 0.5 μg/ml integrin, read-out: αvβ3 IC50 ± SD. As for the experimental part: 96-well plates were subjected overnight to coating with 0.5 μg/ml of integrin αvβ3 (Chemicon, cat. CC1020). On the next day, the wells were washed and incubation was performed with 0.05 nM of (^125I) Echistatin (Amersham, cat. IM304) in the absence or presence of compounds according to the invention. After a 3-hour incubation and a series of washings, the integrin from each well bound to the radioactive substance was solubilised with NaOH 2N, and the radioactivity was then measured using a gamma counter. Non-specific binding, to be subtracted from all samples, was determined in the presence of Echistatin 1 μM.
(§3) The affinity of the compounds according to the present invention for vitronectin receptors was expressed as the IC50±SD value (nM) which is a parameter elaborated using “ALLFIT” software.

The next assay addresses T2, integrin αvβ5 (Homo sapiens, UniProt P06756+P18084).
T2 construct: purchased Chemicon CC1022
The experiment in a line: Binding to integrin αvβ5 receptors ((125I) Echistatin displacement). The note with it: for IC50: 0.05 nM (125I) Echistatin, plate coated with 1 μg/ml integrin, read-out: αvβ5 IC50 ± SD. Here is the method: On the next day, the wells were washed and incubation was performed with 0.05 nM of(^125I) Echistatin (Amersham, cat. IM304) in the absence or presence of compounds according to the invention. The process then proceeded as described in the previous case.
as §3

The test system of assay [3] is SK-LMS-1 human leiomyosarcoma cells. The experiment in a line: Cell adhesion assay on vitronectin, SK-LMS-1. Format: cell-based. The conditions noted are these: inhibition of cell adhesion to human vitronectin, 0.1 to 100 μM; read-out: SK-LMS1 IC50 ± SD. Here is the method:
SK-LMS-1 human leiomyosarcoma cells (ATCC) were grown in EMEM supplemented with 10% FCS, 2 mM L-glutamine and 50 μg/ml gentamicin.
as §1, §2

Where two headings read alike, the source gives them in different places.

T2 sequence (P06756 31-889 limits assumed): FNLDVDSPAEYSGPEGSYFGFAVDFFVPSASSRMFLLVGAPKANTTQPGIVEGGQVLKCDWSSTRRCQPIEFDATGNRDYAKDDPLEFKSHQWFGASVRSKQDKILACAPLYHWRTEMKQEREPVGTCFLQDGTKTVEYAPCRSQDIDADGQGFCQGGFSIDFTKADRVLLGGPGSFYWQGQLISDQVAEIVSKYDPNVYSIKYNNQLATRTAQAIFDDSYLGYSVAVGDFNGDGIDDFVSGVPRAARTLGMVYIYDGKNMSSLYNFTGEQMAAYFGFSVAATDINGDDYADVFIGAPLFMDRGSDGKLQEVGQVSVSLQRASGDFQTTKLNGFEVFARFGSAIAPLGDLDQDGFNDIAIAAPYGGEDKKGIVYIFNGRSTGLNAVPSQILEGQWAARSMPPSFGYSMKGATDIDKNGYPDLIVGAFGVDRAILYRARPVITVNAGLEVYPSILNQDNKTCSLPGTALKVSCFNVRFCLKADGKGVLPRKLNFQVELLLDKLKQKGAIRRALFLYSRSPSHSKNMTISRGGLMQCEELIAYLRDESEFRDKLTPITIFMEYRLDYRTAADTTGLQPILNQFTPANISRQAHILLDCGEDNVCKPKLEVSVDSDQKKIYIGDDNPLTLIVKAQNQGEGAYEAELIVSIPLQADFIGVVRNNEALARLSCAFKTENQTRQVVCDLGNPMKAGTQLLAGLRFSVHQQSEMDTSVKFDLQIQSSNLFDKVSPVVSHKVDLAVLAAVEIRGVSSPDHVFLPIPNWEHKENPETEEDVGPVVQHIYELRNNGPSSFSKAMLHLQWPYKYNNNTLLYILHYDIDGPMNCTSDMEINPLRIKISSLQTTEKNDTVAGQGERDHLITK
T2 sequence (P06756 891-1048 partner limits assumed): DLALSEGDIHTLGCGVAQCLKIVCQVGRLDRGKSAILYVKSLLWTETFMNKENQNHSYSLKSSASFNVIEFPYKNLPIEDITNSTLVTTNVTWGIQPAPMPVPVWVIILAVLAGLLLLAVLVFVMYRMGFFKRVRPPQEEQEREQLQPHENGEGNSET
T2 sequence (P18084 24-799): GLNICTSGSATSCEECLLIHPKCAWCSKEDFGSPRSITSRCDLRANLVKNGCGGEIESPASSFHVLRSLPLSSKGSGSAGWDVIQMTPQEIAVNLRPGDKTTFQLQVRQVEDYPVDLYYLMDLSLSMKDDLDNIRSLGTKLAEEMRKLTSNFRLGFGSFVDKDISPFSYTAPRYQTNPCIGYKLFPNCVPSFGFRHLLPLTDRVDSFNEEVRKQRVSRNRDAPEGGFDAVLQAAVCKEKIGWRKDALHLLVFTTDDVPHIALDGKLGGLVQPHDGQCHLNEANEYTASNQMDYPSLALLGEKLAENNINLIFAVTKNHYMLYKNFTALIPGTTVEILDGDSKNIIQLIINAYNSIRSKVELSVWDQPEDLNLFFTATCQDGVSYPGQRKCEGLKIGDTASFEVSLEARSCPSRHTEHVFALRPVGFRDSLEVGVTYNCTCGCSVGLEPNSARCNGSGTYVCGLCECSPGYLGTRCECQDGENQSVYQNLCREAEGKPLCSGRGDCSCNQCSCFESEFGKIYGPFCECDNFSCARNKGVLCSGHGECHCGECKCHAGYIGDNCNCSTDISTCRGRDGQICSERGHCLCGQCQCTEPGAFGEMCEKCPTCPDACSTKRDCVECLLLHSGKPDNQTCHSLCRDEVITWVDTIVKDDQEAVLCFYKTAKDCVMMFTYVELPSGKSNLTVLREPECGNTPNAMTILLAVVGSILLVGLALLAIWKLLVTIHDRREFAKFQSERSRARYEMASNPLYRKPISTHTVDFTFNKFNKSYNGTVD
T1 sequence (P06756 31-889 limits assumed): as the sequence (P06756 31-889 limits assumed) above
T1 sequence (P06756 891-1048 partner limits assumed): as the sequence (P06756 891-1048 partner limits assumed) above
T1 sequence (P05106 27-788): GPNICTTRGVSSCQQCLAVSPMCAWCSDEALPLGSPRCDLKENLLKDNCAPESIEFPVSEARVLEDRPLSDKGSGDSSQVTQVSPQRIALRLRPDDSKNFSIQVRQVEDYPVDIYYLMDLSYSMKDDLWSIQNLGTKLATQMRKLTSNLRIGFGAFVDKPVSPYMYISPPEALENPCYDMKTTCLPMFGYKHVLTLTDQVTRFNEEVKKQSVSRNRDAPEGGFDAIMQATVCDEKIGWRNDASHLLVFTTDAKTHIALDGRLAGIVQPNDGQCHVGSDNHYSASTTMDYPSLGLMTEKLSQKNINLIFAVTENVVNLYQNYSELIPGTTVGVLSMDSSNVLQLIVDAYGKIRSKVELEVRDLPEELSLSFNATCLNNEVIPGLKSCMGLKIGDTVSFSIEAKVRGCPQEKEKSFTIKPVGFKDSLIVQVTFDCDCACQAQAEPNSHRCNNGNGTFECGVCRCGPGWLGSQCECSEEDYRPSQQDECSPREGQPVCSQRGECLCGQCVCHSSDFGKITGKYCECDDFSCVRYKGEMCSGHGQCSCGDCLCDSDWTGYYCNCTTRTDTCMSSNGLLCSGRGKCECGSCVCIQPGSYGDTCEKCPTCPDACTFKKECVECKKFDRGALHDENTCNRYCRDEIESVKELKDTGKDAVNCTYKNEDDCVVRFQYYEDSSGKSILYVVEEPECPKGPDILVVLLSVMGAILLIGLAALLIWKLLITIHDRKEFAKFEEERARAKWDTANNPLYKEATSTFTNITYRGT

As usually defined, the IC50 is the point on the concentration scale where inhibition reaches its midpoint. In the case of `N=C(N)NCCC[C@@H]1NC(=O)C(Cc2ccccc2)(C(F)(F)F)NC(=O)[C@@H](Cc2ccccc2)NC(=O)[C@H](CC(=O)O)NC(=O)CNC1=O` (single isomer, unassigned) [ST1930, C(Arg-Gly-Asp-D-Phe-(R or S)-Tfm-Phe)], the half-inhibitory concentration (IC50) was 6.9 ± 1.3 µM in assay [1] and 8.9 ± 0.4 µM in assay [2].
`CC(C)[C@@H]1NC(=O)[C@@H](Cc2ccccc2)NC(=O)C(CC(=O)O)(C(F)(F)F)NC(=O)CNC(=O)[C@H](CCCNC(=N)N)NC1=O` (single isomer, unassigned) [ST2189, c(Arg-Gly-(R or S)-Tfm-Asp-D-Phe-Val)]: the concentration for half-maximal inhibition (IC50) at integrin αvβ3 and on integrin αvβ5 was > 10 µM throughout.
As for `CC(C)[C@@H]1NC(=O)[C@@H](Cc2ccccc2)NC(=O)C(CC(=O)O)(C(F)(F)F)NC(=O)CNC(=O)[C@H](CCCNC(=N)N)NC1=O` (single isomer, unassigned) [ST2190, c(Arg-Gly-(R or S)-Tfm-Asp-D-Phe-Val)], the IC50 at integrin αvβ3 and at integrin αvβ5 was > 10 µM in each case.
In the case of `CC(C)[C@@H]1NC(=O)C(Cc2ccccc2)(C(F)(F)F)NC(=O)[C@H](CC(=O)O)NC(=O)CNC(=O)[C@H](CCCNC(=N)N)NC1=O` (single isomer, unassigned) [ST2191, c(Arg-Gly-Asp-(R o S)-Tfm-Phe-Val)], the IC50 amounted to 0.237 ± 0.064 µM at integrin αvβ3, 0.01 ± 0.0019 µM on integrin αvβ5, 21.9 ± 2.5 µM in assay [1] and 18.8 ± 4.4 µM in assay [2].
On to `CC(C)[C@@H]1NC(=O)C(Cc2ccccc2)(C(F)(F)F)NC(=O)[C@H](CC(=O)O)NC(=O)CNC(=O)[C@H](CCCNC(=N)N)NC1=O` (single isomer, unassigned) [ST2192, c(Arg-Gly-Asp-(R o S)-Tfm-Phe-Val)], for which the figures for the half-inhibitory concentration (IC50) (at integrin αvβ3; on integrin αvβ5; in assay [2]) were 1.02 ± 0.348 µM, 0.0727 ± 0.0038 µM and > 100 µM, respectively.
As to `CC(C)C1(C(F)(F)F)NC(=O)[C@@H](Cc2ccccc2)NC(=O)[C@H](CC(=O)O)NC(=O)CNC(=O)[C@H](CCCNC(=N)N)NC1=O` (single isomer, unassigned) [ST2409, c(Arg-Gly-Asp-D-Phe-(R or S)-Tfm-Val)], the concentration for half-maximal inhibition (IC50) came out at 15.9 ± 1.6 µM in assay [3] and 12.5 ± 1.5 µM in assay [2].
As for `CC(C)C1(C(F)(F)F)NC(=O)[C@@H](Cc2ccccc2)NC(=O)[C@H](CC(=O)O)NC(=O)CNC(=O)[C@H](CCCNC(=N)N)NC1=O` (single isomer, unassigned) [ST2410, c(Arg-Gly-Asp-D-Phe-(R or S)-Tfm-Val)], the 50% inhibitory concentration (IC50) was > 100 µM in assay [3] and 77.6 ± 7.2 µM in assay [2].
For `CN1C(=O)[C@@H](Cc2ccccc2)NC(=O)[C@H](CC(=O)O)NC(=O)CNC(=O)[C@H](CCCNC(=N)N)NC(=O)C1(Cc1ccccc1)C(F)(F)F` (single isomer, unassigned) [ST2552, c(Arg-Gly-Asp-D-Phe-(R or S)—N-Me-Tfm-Phe)], the “binding affinity for vitronectine receptor αvβ3 (in words)” value at integrin αvβ3 is recorded as “high binding affinity”. Further, the “binding affinity for vitronectine receptor αvβ5 (in words)” value on integrin αvβ5 was “high binding affinity”. Moreover, the 50% inhibitory concentration (IC50) is 0.33 ± 0.05 µM in assay [1] and > 100 µM in assay [2].
Regarding “c(Arg-Gly-Asp-D-Phe-(R,S)-Dfm-Phe) [ST1932]”, the IC50 on integrin αvβ3 came out at 0.332 ± 0.101 µM; at integrin αvβ5 it was 0.0055 ± 0.0008 µM; in assay [1], 13.9 ± 4.3 µM; in assay [2] (read-out: BMEC IC50 ± SD, inhibition of cell adhesion to human vitronectin, 0.1 to 100 μM), 14.2 ± 1 µM.

These data come from patent publication US20060205637A1, “Fluoro-alkyl-cyclopeptide derivatives having anti-integrin activity” (Sigma-Tau Industrie Farmaceutiche Riunite S.p.A., priority 2002, published 2006).
